The subject of one assay is IL-6. The experiment in a line: IL-6 inhibition in LPS-stimulated THP-1 cells (HTRF). The assay is classed as cell-based. The settings on record: Homo sapiens; for pEC50: LPS 500 ng/mL, 22 hours, IL6 HTRF; for inhibition at 10 µM: given for EC50 >10 μM, LPS, IL6, 10 μM, read-out: percent inhibition at 10 μM. For orientation: TR-FRET usually uses a lanthanide donor and a delayed reading to cut background.

Assay [1] deals with primary human mesenchymal stem cells (hMSCs). The experiment in a line: Induction of chondrogenesis in primary human mesenchymal stem cells (nodule count). Type of assay: cell-based. The settings on record: 144 h, 6 days; for Emax: TGF-β3 10 ng/mL as positive control, read-out: Max. Activity as % TGF-β3 activity; for EC50: concentration required to induce 50% levels of chondrogenesis vs TGF-β3, read-out: Conc (nM) of 50% TGF-β3 activity. How it is done:
Representative compounds were screened using primary human mesenchymal stem cells (hMSCs) to determine their ability to induce chondrogenesis (process by which cartilage is developed).
Human Mesenchymal Stem Cell Culture: Primary human mesenchymal stem cells (hMSCs) were purchased from Lonza (Walkersville, Md.) and expanded in Mesenchymal Stem Cell Growth Media (Lonza). Cells between passage 3 and 6 were used for the experiments.
Compound Screening: Each compound was dissolved in DMSO as a 10 mM stock and used to prepare compound source plates. Serial dilution (1:3, 6-point dose-response curves from 2700 nM to 10 nM) and compound transfer was performed using the ECHO 550 (Labcyte, Sunnyvale, Calif.) into 96-well clear bottom assay plates (Greiner Bio-One) with appropriate DMSO backfill for a final DMSO concentration of 0.03%. hMSCs were plated at 20,000 cells/well in 250 μL/well Incomplete Chondrogenic Induction Medium (Lonza; DMEM, dexamethasone, ascorbate, insulin-transferrin-selenium [ITS supplement], gentamycin-amphotericin [GA-1000], sodium pyruvate, proline and L-glutamine). TGF-β3 (10 ng/mL) was used as a positive control for differentiation while negative control wells were treated with 75 nL DMSO for normalization and calculating EC50 values. Cells were incubated at 37° C. and 5% CO2 for 6 days. To image chondrogenic nodules, the cells were fixed using 4% formaldehyde (Electron Microscopy Sciences), and stained with 2 μg/mL Rhodamine B (Sigma-Aldrich) and 20 μM Nile Red (Sigma-Aldrich) [Johnson K., et. al, A Stem Cell-Based Approach to Cartilage Repair, Science, (2012), 336(6082), 717-721]. The nodules imaged (4 images per well at 4× magnification) by excitation at 531 nm and emission at 625 nm and quantified using the CellInsight CX5 (Thermo Scientific). Number of nodules in each well was normalized to the average of 3 DMSO treated wells on the same plate using Excel (Microsoft Inc.). The normalized averages (fold change over DMSO) of 3 replicate wells for each compound concentration were calculated. Due to solubility limitations of some of the compounds, curve fitting was incomplete leading to inaccurate EC50 determinations.
Using TGF-β3 as a positive control, the concentration of representative compounds required to induce 50% levels of chondrogenesis is reported. In addition, the maximum activity of each compound and the respective dose that each compound reached maximum chondrogenesis activity is reported.

pEC50: −log10 of the molar value.

By pEC50 is commonly meant the negative decadic logarithm of the EC50, by convention in mol/L. A high value points to a low EC50. A word on the inhibition: it is the relative decrease from the control value, in per cent. Consider `CS(=O)(=O)NCc1cc(F)cc(-c2nccc3[nH]c(-c4n[nH]c5ccc(-c6cncnc6)nc45)cc23)c1` [Compound 503, N-(3-Fluoro-5-(2-(5-(pyrimidin-5-yl)-1H-pyrazolo[4,3-b]pyridin-3-yl)-1H-pyrrolo [3,2-c]pyridin-4-yl)benzyl)methanesulfonamide], for which, in the assay on IL-6, the negative-log EC50 (pEC50) was below 5.00 and the inhibition at 10 µM came to 7.6%. In assay [1], the Emax is 51% and the EC50 was 2700 nM.

`CS(=O)(=O)NCc1cc(F)cc(-c2nccc3[nH]c(-c4n[nH]c5ccc(-c6ccccn6)nc45)cc23)c1` [Compound 504, N-(3-Fluoro-5-(2-(5-(pyridin-2-yl)-1H-pyrazolo[4,3-b]pyridin-3-yl)-1H-pyrrolo[3,2-c]pyridin-4-yl)benzyl)methanesulfonamide]: in the assay with IL-6, the pEC50 was below 5.00 and the inhibition at 10 µM was 0%. Besides, in assay [1], the Emax was 24%.

As to `Fc1ccc(-c2nccc3[nH]c(-c4n[nH]c5ccc(-c6cncc(OC7CCNCC7)c6)nc45)cc23)cc1` [Compound 528, 3-(4-(4-Fluorophenyl)-1H-pyrrolo[3,2-c]pyridin-2-yl)-5-(5-(piperidin-4-yloxy)pyridin-3-yl)-1H-pyrazolo[4,3-b]pyridine], the pEC50 in the assay with IL-6 is 6.14. Moreover, in assay [1], the Emax was 54% and the EC50 was 10 nM.

As for `Fc1ccccc1-c1nccc2[nH]c(-c3n[nH]c4ccc(-c5cn[nH]c5)nc34)cc12` [Compound 539, 3-(4-(2-Fluorophenyl)-1H-pyrrolo[3,2-c]pyridin-2-yl)-5-(1H-pyrazol-4-yl)-1H-pyrazolo[4,3-b]pyridine], in the assay on IL-6, the pEC50 was 6.99. In addition, in assay [1], the Emax came to 174% and the EC50 was 100 nM.

Turning to `Cc1ncc(-c2ccc3[nH]nc(-c4cc5c(-c6ccncc6)nccc5[nH]4)c3n2)n1C` [Compound 573, 5-(1,2-Dimethyl-1H-imidazol-5-yl)-3-(4-(pyridin-4-yl)-1H-pyrrolo[3,2-c]pyridin-2-yl)-1H-pyrazolo[4,3-b]pyridine], in the assay on IL-6, the pEC50 was below 5.00 and the inhibition at 10 µM is 0%. In assay [1], the Emax amounted to 104% and the EC50 is 30 nM.

`c1cc2[nH]c(-c3n[nH]c4ccc(-c5cncc(OC6CCCCC6)c5)nc34)cc2c(N2CCCCC2)n1` [Compound 607, 5-(5-(Cyclohexyloxy)pyridin-3-yl)-3-(4-(piperidin-1-yl)-1H-pyrrolo[3,2-c]pyridin-2-yl)-1H-pyrazolo[4,3-b]pyridine] had a pEC50 with IL-6 of 5.75. Moreover, in assay [1], the Emax came out at 163% and the EC50 came out at 10 nM.

`O=C(CC1CCNCC1)Nc1cncc(-c2ccc3[nH]nc(-c4cc5c(N6CCCCC6)nccc5[nH]4)c3n2)c1` [Compound 609, N-(5-(3-(4-(Piperidin-1-yl)-1H-pyrrolo[3,2-c]pyridin-2-yl)-1H-pyrazolo[4,3-b]pyridin-5-yl)pyridin-3-yl)-2-(piperidin-4-yl)acetamide]: the pEC50 in the assay with IL-6 is 5.53. For the same compound, in assay [1], the Emax turned out to be 22%.

With `c1cc2[nH]c(-c3n[nH]c4ccc(-c5cncc(OCCN6CCCC6)c5)nc34)cc2cn1` [Compound 658, 5-(5-(2-(Pyrrolidin-1-yl)ethoxy)pyridin-3-yl)-3-(1H-pyrrolo[3,2-c]pyridin-2-yl)-1H-pyrazolo[4,3-b]pyridine], the negative-log EC50 (pEC50) with IL-6 was 5.97. Further, in assay [1], the Emax was determined as 23%.

The record behind these values is US10231956B2, “3-(1H-pyrrolo[3,2-C]pyridin-2-YL)-1 H-pyrazolo[4,3-B]pyridines and therapeutic uses thereof” (Samumed, LLC, priority 2015, dated 2019).
